# Measurements reported in PMC2685987, “Integrating Statistical Predictions and Experimental Verifications for Enhancing Protein-Chemical Interaction Predictions in Virtual Screening” (PLoS Computational Biology, 2009).
# Target: T1, MBP-ARC (Maltose Binding Protein tagged Androgen Receptor C-termini) (Homo sapiens, UniProt P10275)
# T1 construct: made in house; host or cells: E. coli DH5a
# T1 sequence (P10275 609-919): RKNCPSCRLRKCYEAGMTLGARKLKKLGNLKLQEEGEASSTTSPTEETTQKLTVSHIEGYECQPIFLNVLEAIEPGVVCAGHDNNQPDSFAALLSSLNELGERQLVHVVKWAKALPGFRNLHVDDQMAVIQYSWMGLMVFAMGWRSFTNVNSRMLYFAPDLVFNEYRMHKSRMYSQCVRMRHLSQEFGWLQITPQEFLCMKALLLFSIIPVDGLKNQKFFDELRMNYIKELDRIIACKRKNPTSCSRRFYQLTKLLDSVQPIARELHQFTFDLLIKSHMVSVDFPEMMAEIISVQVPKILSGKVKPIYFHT
# Experiment: in vitro binding assay - hydroxyapatite method ([3H]-DHT competition)
# Settings: concentration of unlabeled test compound at which 50% of the [3H]-DHT is still bound to MBP-ARC; 2 nM [3H]-DHT, 50 µg/ml MBP-ARC, three hours
# Protocol: 1.9 The in vitro binding assay - hydroxyapatite method
# 800 mM NaCl, 10 % glycerol, 1mg/ml BSA and 2mM DTT to obtain a 100 l mixture solution.
# mixture solution was incubated at 4 for 3 hours.
# After incubation, BioGel HT (Bio-Rad Laboratories) was added to the solution and incubated on ice
# for 15 minutes, during which vortexing was done every 5 minutes. The incubated solution was centrifuged
# at 1,000 rpm for a minute and a supernatant was removed.
# A wash buﬀer consisting of 40 mM Tris-HCl pH 7.6, 100 mM KCl, 1mM EDTA and 1mM EGTA and
# cooled on ice was added to the precipitate by 1 ml and mixed. The produced solution was centrifuged
# at 1,000 rpm and a supernatant was removed. This process was repeated three times.
# The collected precipitate was suspended in 3 ml Aquasol (New England nuclear Corp.). Radioactivity
# of the suspended solution in a scintillation vial (Perkin Elmer) was measured by a liquid scintillation
# test compounds was regarded as IC50 of the test compound.
smiles,measurement,value
Cc1c(-c2ccc(NC(=O)C(C)(C)C)cc2)nc2ccc(Cl)cn12 [T5853872],IC50,80 µM
